Where two headings read alike, the source gives them in different places.
Legend:
[1] = set-up: species or system human; settings: in vivo
Description: The use of the antiviral drug is not useful for a longer period, as the remission period begins for the patient and the drug is ineffective.

[2] = Patient M.
[3] = assay type: in vivo, human
Description: Example 1. Patient, came to the clinic with a diagnosis of ischemic heart disease. Exertional angina, functional class III. Postinfarction cardiosclerosis (myocardial infarction in 1981). Atherosclerosis of the coronary arteries. Circulatory deficiency stage IIA. Cerebral atherosclerosis. Chronic cerebral impairment. Symptomatic hypertension. At arrival, complained of a squeezing pain in the area of the heart with radiation to the right hand, which arise both at rest and during physical activity (up to 4-5 times per day) and were relieved by taking nitroglycerin (up to 8 times per day), as well as shortness of breath while walking, vertigo, periodic headaches, ringing in the ears, irritability, and insomnia. The patient was prescribed treatment: anti-angina drugs (Nitrosorbidum 30 mg/day, Corinfar 30 mg/day; also has hypotensive activity), and Valacyclovir 2 tablets (1.0 g) three times a day. […] The atherogenesis index fell from 4.74 to 3.38, and there was an increase in cholesterol/HDL from 1.17 mmol/l to 1.20 mmol/l. During the treatment process, a slowing in the free-radical acidization of lipids was seen; the content of serum malondialdehyde fell from 0.50 mcmol/ml to 0.31 mcmol/ml, diethynoid conjugates fell from 1.332 mcmol/ml to 0.70 mcmol/ml, triethynoid conjugates declined from 0.23 mcmol/ml to 0.14 mcmol/ml; the a-tocopherol content recovered from 2.69 mcmol/ml to 4.32 mcmol/ml; the glutathione reductase activity went from 12.4 mcmol/l h to 22.0 mcmol/l h. On the electrocardiogram, a decrease in the T index from 35.0 to 0, in the SST from 11.0 to 0, and in the NST from 10.0 to 0 were seen. […] Angina pain and shortness of breath not present; nitroglycerine tablets not used. Vertigo and headaches had decreased.
Thus in the process of treatment, in the patient who took Valacyclovir, lipidogram, peroxide acidization of lipids, electrocardiography, and tetrapolar rheography indicators normalized. Valacyclovir side effects were not observed.

[4] = Example 4: patient with ischemic heart disease, lipid and liver complexes after Zocor and then combination anti-viral therapy; assay type: in vivo, human; settings: after six months of Zocor 20 mg/day, goal indicator 4.0

Nc1nc2c(ncn2COCCO)c(=O)[nH]1 [Acyclovir]
long-term remission of the illness or substantial positive stabilization of the patient's condition [1]: does not provide long-term remission

CC(C)[C@H](N)C(=O)OCCOCn1cnc2c(=O)[nH]c(N)nc21 [Valacyclovir]
total cholesterol ([2]; after Valacyclovir 1.0 g 3×/day for 3 courses of 7 days, with standard treatment, goal value 5.0): 4.7 mmol/L
serum malondialdehyde content ([3]; after Valacyclovir 1.0 g three times a day + anti-angina drugs, before 0.50): 0.31 mcmol/ml
LDL in blood serum ([3]; after Valacyclovir 1.0 g three times a day + anti-angina drugs, before 1.55): 0.47 mmol/L
cholesterol/LDL in blood serum ([3]; after Valacyclovir 1.0 g three times a day + anti-angina drugs, before 3.99): 3.68 mmol/L
electrocardiogram NST ([3]; after Valacyclovir 1.0 g three times a day + anti-angina drugs, before 10.0): 0
electrocardiogram SST ([3]; after Valacyclovir 1.0 g three times a day + anti-angina drugs, before 11.0): 0
electrocardiogram T index ([3]; after Valacyclovir 1.0 g three times a day + anti-angina drugs, before 35.0): 0
side effects ([3]; human, in vivo): not observed
lipidogram, peroxide acidization of lipids, electrocardiography, and tetrapolar rheography indicators ([3]; in the process of treatment, patient who took Valacyclovir): normalized
vertigo and headaches ([3]; within seven weeks, Valacyclovir 1.0 g three times a day + anti-angina drugs): decreased
use of nitroglycerine tablets ([3]; within seven weeks, before up to 8 times per day): not used
long-term remission of the illness or substantial positive stabilization of the patient's condition [1]: does not provide long-term remission

CCC(C)(C)C(=O)O[C@H]1C[C@@H](C)C=C2C=C[C@H](C)[C@H](CC[C@@H]3C[C@@H](O)CC(=O)O3)[C@H]21 [simvastatin]
total cholesterol ([2]; after six months of simvastatin 10 mg/day, goal indicator 5.0): 4.9 mmol/L
total cholesterol [4]: 3.9 mmol/L
